In patent publication US7560468B2, “Substituted 1,4,8-triazaspiro[4,5]decan-2-one compounds” (Gruenenthal GmbH, priority 2004, dated 2009):

Legend:
[1] = tested on: batrachotoxin (BTX) binding site of the sodium channel; test: Affinity to the batrachotoxin (BTX) binding site of the sodium channel; conditions: rat cerebrocortex synaptosomes, [3H]-batrachotoxinin A20 α-benzoate 10 nM; test concentration not given
[2] = tested on: NA transporter; test: Inhibition of noradrenalin uptake in synaptosomes; format: biochemical

Row | SMILES | BTX Inhibition [1] | Uptake (NA), rat, 10 μM, % inhibition [2] [%]
1 | CSCCC1NC2(CCN(C(=O)NCc3ccc(Cl)c(Cl)c3)CC2)N(Cc2ccccc2C#N)C1=O (stereo not shown) [Example 229, 1-(2-Cyanobenzyl)-3-(2-methylsulfanylethyl)-2-oxo-1,4,8-triazaspiro[4,5]decan-8-carboxylic acid 3,4-dichlorobenzylamide] | 69 | 40
2 | COC(=O)c1ccc(CN2C(=O)C(C(C)C)NC23CCN(C(=S)NCC2CCCO2)CC3)cc1 (stereo not shown) [Example 137, Methyl 4-{3-isopropyl-2-oxo-8-[(tetrahydrofuran-2-ylmethyl)thiocarbamoyl]-1,4,8-triazaspiro[4,5]dec-1-ylmethyl}-benzoate] | 37 | 30
3 | CSCCC1NC2(CCN(C(=S)Nc3ccc(Cl)cc3)CC2)N(Cc2cccc(C#N)c2)C1=O (stereo not shown) [Example 172, 1-(3-Cyanobenzyl)-3-(2-methylsulfanylethyl)-2-oxo-1,4,8-triazaspiro[4,5]decan-8-thiocarboxylic acid (4-chlorobenzol)amide] | 59 | 47
4 | CC(C)CC1NC2(CCN(C(=S)Nc3cc(C(F)(F)F)cc(C(F)(F)F)c3)CC2)N(Cc2ccccc2C#N)C1=O (stereo not shown) [Example 169, 1-(2-Cyanobenzyl)-3-isobutyl-2-oxo-1,4,8-triazaspiro[4,5]decan-8-thiocarboxylic acid (3,5-bis-trifluoromethylbenzol)amide] | 91 | 44
5 | CSCCC1NC2(CCN(C(=S)NCc3ccc(Cl)cc3)CC2)N(Cc2ccccc2C#N)C1=O (stereo not shown) [Example 193, 1-(2-Cyanobenzyl)-3-(2-methylsulfanylethyl)-2-oxo-1,4,8-triazaspiro[4,5]decan-8-thiocarboxylic acid 4-chlorobenzylamide] | 72 | 32
6 | COc1ccccc1NC(=S)N1CCC2(CC1)NC(CCSC)C(=O)N2Cc1ccccc1C#N (stereo not shown) [Example 183, 1-(2-Cyanobenzyl)-3-(2-methylsulfanylethyl)-2-oxo-1,4,8-triazaspiro[4,5]decan-8-thiocarboxylic acid (2-methoxy-benzol)amide] | 37 | 29
7 | COc1cc(C)c(S(=O)(=O)N2CCC3(CC2)NC(=O)C(Cc2ccccc2)N3)c(C)c1C (stereo not shown) [Example 4, 3-Benzyl-8-(4-methoxy-2,3,6-trimethylbenzolsulfonyl)-1,4,8-triazaspiro[4,5]decan-2-one] | 53 | 34
8 | CSCCC1NC2(CCN(C(=O)Nc3ccc(OC(F)(F)F)cc3)CC2)N(C)C1=O (stereo not shown) [Example 222, 1-Methyl-3-(2-methylsulfanylethyl)-2-oxo-1,4,8-triazaspiro[4,5]decan-8-carboxylic acid (4-trifluoromethoxy-benzol)amide] | 48 | 30
9 | CC(C)CC1NC2(CCN(C(=S)NCc3ccccc3)CC2)N(Cc2ccccc2C#N)C1=O (stereo not shown) [Example 170, 1-(2-Cyanobenzyl)-3-isobutyl-2-oxo-1,4,8-triazaspiro[4,5]decan-8-thiocarboxylic acid benzylamide] | 53 | 46
10 | CCCCN1C(=O)C(C(C)C)NC12CCN(C(=S)Nc1c(F)c(F)c(F)c(F)c1F)CC2 (stereo not shown) [Example 152, 1-Butyl-3-isopropyl-2-oxo-1,4,8-triazaspiro[4,5]decan-8-thiocarboxylic acid pentafluorobenzolamide-amide] | 39 | 37
11 | CCOC(=O)CN1C(=O)C(CCSC)NC12CCN(C(=O)Nc1ccccc1)CC2 (stereo not shown) [Example 203, Ethyl[3-(2-methylsulfanylethyl)-2-oxo-8-benzolcarbamoyl-1,4,8-triazaspiro[4,5]dec-1-yl]-acetate] | 32 | 40
